Reference: patent publication US7872018B2, “Compounds and methods for kinase modulation, and indications therefor” (Plexxikon, Inc., priority 2006, dated 2011)

Tests used:
B-Raf = B-Raf (Homo sapiens, UniProt P15056); assay: B-Raf kinase activity assay; type: biochemical; conditions: under the test conditions employed; read-out: IC50 toward kinase B-Raf
B-Raf V600E = B-Raf V600E (Homo sapiens, UniProt P15056, V600E); assay: B-Raf V600E kinase activity assay; type: biochemical; conditions: under the test conditions employed; read-out: IC50 toward kinase B-Raf V600E
c-Raf-1 = c-Raf-1 (Homo sapiens, UniProt P04049); assay: c-Raf-1 kinase activity assay; type: biochemical; conditions: under the test conditions employed; read-out: IC50 toward kinase c-Raf-1
FGFR = FGFR (Homo sapiens, UniProt P11362); assay: FGFR kinase activity assay; type: biochemical; conditions: under the test conditions employed; read-out: IC50 toward kinase FGFR
Fms = target: T1, Fms (Homo sapiens, UniProt P07333); assay: Fms biochemical assay (AlphaScreen or 33P-ATP); conditions: under the test conditions employed; read-out: IC50 toward kinase Fms
T1 construct: purchased Upstate Biotech 14-551
Excerpt: Each sample was at 5% DMSO.

Kit = target: T2, Kit (Homo sapiens, UniProt P10721); assay: c-kit biochemical assay (AlphaScreen or 33P-ATP); conditions: under the test conditions employed; read-out: IC50 toward kinase Kit
T2 construct: P1332.N6 BI PTP KIT M552-K948-X COD; made in house; host or cells: E. coli BL21(DE3)RIL, co-expressed with PTP1B
Summary of the method: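 Kinase activity read by AlphaScreen or 33P-ATP incorporation, with c-kit enzyme at 1 ng per sample. The enzyme was either commercial or a recombinant human kit construct made from a gene-synthesized coding sequence.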

Fak = Fak (Homo sapiens, UniProt Q05397); assay: Fak kinase activity assay; type: biochemical; conditions: under the test conditions employed; read-out: IC50 toward kinase Fak
TrkA = target: T3, TrkA (Homo sapiens, UniProt P04629); assay: TrkA biochemical assay (AlphaScreen); conditions: under the test conditions employed; read-out: IC50 toward kinase TrkA
T3 construct: purchased Upstate Biotech 14-571
Experimental: Compounds tested were dissolved in DMSO (1 μL) and added to a white 384-well plate (Costar #3705). […] Each sample was at 5% DMSO. The plate was then incubated for 40 minutes at room temperature.

HGK = HGK (Homo sapiens, UniProt O95819); assay: HGK (MAP4K4) biochemical assay (AlphaScreen); conditions: under the test conditions employed; read-out: IC50 toward kinase HGK
Summary of the method: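 AlphaScreen kinase assay with 0.5 ng MAP4K4 per sample and 10 nM biotin-ERM substrate, reacted 40 min at room temperature. Stopped with EDTA buffer containing phospho-ERM antibody (1:1000) plus donor and protein A acceptor beads (1 μg/ml final); signal tracks substrate phosphorylation.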

Flt1 = Flt1 (Homo sapiens, UniProt P17948); assay: Flt1 kinase activity assay; type: biochemical; conditions: under the test conditions employed; read-out: IC50 toward kinase Flt1
Kdr = Kdr (Homo sapiens, UniProt P35968); assay: Kdr kinase activity assay; type: biochemical; conditions: under the test conditions employed; read-out: IC50 toward kinase Kdr
Btk = Btk (Homo sapiens, UniProt Q06187); assay: Btk kinase activity assay; type: biochemical; conditions: under the test conditions employed; read-out: IC50 toward kinase Btk

Measured: IC50

T1 sequence (P07333 20-972): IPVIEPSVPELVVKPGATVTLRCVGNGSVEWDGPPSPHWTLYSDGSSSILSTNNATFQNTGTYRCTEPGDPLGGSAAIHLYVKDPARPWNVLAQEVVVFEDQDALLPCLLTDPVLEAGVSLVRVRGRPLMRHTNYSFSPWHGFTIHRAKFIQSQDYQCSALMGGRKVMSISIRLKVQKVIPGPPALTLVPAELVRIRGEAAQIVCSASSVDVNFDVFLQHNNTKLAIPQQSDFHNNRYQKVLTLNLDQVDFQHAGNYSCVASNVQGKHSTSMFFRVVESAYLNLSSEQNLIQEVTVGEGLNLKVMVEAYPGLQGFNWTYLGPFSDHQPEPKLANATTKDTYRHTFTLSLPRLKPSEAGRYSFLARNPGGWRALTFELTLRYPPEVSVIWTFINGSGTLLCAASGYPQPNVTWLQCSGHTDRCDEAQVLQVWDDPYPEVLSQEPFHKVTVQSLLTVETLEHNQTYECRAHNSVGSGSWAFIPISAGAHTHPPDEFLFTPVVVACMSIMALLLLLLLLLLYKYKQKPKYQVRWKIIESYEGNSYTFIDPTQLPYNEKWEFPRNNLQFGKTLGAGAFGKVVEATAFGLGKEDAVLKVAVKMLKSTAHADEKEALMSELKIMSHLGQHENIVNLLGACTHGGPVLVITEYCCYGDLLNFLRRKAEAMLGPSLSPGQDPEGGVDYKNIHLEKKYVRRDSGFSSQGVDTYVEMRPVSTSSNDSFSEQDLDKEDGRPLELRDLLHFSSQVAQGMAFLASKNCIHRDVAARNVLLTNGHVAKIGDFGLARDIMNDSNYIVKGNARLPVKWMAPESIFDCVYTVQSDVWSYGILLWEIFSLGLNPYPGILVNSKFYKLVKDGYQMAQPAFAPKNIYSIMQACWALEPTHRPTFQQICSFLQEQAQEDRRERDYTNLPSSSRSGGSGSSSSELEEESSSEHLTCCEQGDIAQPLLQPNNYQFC
Sequence of FGFR (P11362 22-822): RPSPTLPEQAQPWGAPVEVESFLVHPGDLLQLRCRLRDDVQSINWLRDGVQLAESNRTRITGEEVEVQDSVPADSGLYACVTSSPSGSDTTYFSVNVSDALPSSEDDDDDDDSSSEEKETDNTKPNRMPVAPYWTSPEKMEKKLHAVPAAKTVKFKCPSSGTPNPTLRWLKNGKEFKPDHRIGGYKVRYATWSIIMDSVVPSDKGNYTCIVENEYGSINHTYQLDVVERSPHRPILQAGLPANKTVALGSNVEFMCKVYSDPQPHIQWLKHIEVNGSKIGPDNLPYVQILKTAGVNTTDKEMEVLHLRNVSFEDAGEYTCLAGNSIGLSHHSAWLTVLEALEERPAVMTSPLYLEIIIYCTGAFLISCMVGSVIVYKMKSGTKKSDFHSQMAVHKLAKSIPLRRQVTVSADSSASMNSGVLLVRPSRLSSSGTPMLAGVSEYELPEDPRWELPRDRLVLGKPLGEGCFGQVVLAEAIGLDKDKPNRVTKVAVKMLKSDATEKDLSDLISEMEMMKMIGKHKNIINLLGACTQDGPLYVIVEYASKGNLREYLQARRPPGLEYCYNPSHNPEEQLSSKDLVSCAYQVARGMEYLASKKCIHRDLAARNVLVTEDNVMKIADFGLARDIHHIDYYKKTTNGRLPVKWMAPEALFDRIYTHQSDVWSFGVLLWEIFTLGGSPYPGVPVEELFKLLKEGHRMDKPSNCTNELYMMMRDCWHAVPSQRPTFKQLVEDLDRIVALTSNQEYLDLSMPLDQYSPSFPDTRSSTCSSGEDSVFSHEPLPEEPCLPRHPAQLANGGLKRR
Sequence of B-Raf (P15056 whole entry): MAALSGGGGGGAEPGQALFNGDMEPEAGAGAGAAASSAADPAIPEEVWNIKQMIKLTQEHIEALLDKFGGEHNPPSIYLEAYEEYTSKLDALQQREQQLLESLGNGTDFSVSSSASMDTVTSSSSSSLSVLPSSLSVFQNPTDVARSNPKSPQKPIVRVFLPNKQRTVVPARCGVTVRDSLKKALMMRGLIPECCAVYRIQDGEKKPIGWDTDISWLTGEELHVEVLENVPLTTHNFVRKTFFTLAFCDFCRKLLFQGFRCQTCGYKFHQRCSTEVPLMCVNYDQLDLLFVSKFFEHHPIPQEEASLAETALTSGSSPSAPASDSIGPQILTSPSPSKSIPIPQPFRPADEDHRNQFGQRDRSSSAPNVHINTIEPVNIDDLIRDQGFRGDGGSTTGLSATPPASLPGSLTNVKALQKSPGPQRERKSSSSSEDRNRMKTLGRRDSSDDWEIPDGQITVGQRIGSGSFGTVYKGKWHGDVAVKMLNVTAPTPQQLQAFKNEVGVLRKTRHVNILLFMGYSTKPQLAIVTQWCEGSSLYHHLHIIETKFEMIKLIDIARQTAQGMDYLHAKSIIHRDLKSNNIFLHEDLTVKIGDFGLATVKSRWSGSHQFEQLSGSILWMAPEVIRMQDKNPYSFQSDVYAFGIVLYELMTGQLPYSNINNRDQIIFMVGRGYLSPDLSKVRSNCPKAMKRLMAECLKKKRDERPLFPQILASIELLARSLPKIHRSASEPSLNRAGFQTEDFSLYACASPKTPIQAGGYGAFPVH
T3 sequence (P04629 33-796): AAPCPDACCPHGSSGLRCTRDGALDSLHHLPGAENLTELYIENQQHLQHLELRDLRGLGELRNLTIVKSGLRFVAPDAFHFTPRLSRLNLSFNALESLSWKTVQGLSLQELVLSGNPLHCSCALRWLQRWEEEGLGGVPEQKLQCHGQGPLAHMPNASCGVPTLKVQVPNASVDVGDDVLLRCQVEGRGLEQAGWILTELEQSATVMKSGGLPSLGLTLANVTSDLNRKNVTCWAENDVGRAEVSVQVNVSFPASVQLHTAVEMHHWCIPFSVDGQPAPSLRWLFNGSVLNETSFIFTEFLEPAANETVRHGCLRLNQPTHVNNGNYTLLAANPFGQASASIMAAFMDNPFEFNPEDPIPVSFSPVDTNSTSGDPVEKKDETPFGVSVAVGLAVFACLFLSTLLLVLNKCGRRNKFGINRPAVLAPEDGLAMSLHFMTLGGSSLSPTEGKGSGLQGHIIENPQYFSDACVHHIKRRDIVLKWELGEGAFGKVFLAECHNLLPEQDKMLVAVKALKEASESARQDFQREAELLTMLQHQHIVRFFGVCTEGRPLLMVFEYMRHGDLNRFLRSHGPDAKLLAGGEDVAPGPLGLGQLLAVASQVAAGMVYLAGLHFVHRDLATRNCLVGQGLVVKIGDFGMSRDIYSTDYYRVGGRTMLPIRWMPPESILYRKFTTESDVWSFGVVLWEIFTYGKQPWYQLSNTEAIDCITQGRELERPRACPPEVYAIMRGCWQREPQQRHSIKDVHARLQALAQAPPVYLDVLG
T2 sequence (P10721 552-948): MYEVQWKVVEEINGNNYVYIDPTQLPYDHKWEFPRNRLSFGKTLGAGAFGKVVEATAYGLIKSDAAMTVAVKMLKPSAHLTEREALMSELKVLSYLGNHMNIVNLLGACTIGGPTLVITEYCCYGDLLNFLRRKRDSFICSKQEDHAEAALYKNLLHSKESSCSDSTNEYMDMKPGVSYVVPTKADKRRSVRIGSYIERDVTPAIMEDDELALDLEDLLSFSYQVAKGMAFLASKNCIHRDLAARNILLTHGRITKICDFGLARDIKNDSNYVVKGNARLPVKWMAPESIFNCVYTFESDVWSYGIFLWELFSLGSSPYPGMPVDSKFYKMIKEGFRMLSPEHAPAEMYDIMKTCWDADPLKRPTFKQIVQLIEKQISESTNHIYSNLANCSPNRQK
Sequence of c-Raf-1 (P04049 whole entry): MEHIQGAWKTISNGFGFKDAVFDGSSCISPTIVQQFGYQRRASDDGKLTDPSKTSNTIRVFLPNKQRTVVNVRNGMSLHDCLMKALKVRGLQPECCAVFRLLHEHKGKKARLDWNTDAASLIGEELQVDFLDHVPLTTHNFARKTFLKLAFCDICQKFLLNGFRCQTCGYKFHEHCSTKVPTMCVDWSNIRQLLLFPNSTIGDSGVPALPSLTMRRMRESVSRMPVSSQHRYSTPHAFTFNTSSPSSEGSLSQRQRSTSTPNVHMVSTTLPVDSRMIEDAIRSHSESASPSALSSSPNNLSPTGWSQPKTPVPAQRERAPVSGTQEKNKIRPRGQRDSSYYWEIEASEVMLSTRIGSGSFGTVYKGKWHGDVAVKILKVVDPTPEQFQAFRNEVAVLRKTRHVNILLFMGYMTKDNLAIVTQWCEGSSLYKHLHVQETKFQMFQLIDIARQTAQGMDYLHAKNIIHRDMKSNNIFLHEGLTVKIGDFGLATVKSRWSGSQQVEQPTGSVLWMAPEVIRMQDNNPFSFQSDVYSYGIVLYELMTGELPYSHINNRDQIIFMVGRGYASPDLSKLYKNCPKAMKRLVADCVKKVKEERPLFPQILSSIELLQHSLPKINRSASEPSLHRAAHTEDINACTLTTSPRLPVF
Sequence of B-Raf V600E (P15056 whole entry V600E): as the sequence (P15056 whole entry) above, with V600E counted along it
Sequence of Btk (Q06187 whole entry): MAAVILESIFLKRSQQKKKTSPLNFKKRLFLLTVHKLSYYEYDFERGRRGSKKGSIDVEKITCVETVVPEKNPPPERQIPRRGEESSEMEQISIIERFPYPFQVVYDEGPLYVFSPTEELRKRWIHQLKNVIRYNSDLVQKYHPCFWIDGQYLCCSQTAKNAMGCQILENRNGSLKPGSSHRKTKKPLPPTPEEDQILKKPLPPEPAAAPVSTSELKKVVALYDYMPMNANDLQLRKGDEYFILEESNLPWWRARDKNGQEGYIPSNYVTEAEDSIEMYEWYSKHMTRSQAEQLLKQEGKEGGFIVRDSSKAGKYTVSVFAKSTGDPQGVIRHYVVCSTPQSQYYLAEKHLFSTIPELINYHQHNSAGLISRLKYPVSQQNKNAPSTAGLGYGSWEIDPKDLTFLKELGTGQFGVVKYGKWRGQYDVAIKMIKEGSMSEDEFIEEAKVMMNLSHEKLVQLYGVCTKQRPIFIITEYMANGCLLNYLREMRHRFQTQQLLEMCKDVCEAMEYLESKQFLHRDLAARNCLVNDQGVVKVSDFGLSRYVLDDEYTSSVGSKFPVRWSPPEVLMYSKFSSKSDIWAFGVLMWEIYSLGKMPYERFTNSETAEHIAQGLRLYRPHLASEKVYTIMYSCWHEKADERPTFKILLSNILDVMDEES

COCCOc1ccc(F)c(Cc2c[nH]c3ncc(Br)cc23)c1F [P-1454, 5-Bromo-3-[2,6-difluoro-3-(2-methoxy-ethoxy)-benzyl]1H-pyrrolo[2,3-b]pyridine]
≤ 10 µM: B-Raf | B-Raf V600E | c-Raf-1 | FGFR | Fms | Kit

COc1cc(Cc2c[nH]c3ncc(Br)cc23)c(F)cc1OCc1nc2ccccc2[nH]1 [P-2181, 2-[4-(5-Bromo-1H-pyrrolo[2,3-b]pyridin-3-ylmethyl)-5-fluoro-2-methoxy-phenoxymethyl]-1H-benzoimidazole]
≤ 10 µM: Fak | Fms | TrkA | HGK

Clc1ccc(COc2ccc(Cc3c[nH]c4ncccc34)cc2Cl)cc1 [P-1449, 3-[3-chloro-4-(4-chloro-benzyloxy)-benzyl]-1H-pyrrolo[2,3-b]pyridine]
≤ 10 µM: B-Raf V600E | Fak | Fms | Kit

Fc1cc(OCc2nc3ccccc3[nH]2)c(F)cc1Cc1c[nH]c2ncc(Br)cc12 [P-2107, 2-[4-(5-Bromo-1H-pyrrolo[2,3-b]pyridin-3-ylmethyl)-2,5-difluoro-phenoxymethyl]-1H-benzoimidazole]
≤ 10 µM: c-Raf-1 | Flt1 | Fms | Kdr | Kit | TrkA | HGK

COCCOc1ccc(F)c(C(=O)c2c[nH]c3ncc(Br)cc23)c1F [P-1453, (5-Bromo-1H-pyrrolo[2,3-b]pyridin-3-yl)-[2,6-difluoro-3-(2-methoxy-ethoxy)-phenyl]-methanone]
≤ 10 µM: B-Raf | B-Raf V600E | c-Raf-1 | Fak | FGFR | Fms | Kit

N#Cc1cnc2[nH]cc(Cc3cc(F)c(OCc4nc5ccccc5[nH]4)cc3F)c2c1 [P-2185, 3-[4-(1H-Benzoimidazol-2-ylmethoxy)-2,5-difluoro-benzyl]-1H-pyrrolo[2,3-b]pyridine-5-carbonitrile]
not listed: FGFR | Fak | Btk
≤ 10 µM: all other assays above

COc1cc(OCc2ccc(Cl)cc2)ccc1Cc1c[nH]c2ncccc12 [P-1450, 3-[4-(4-chloro-benzyloxy)-2-methoxy-benzyl]-1H-pyrrolo[2,3-b]pyridine]
≤ 10 µM: B-Raf V600E | Fak | Fms | Kit

CCOc1c(OCc2ccc(N(CC)CC)nc2)cccc1C(=O)c1c[nH]c2ncccc12 [P-2143, [3-(6-Diethylamino-pyridin-3-ylmethoxy)-2-ethoxy-phenyl]-(1H-pyrrolo[2,3-b]pyridin-3-yl)-methanone]
≤ 10 µM: Btk | c-Raf-1 | Fms

COCCOCCOc1cc(Cl)c(Cc2c[nH]c3ncc(Cl)cc23)cc1F [P-2155, 5-chloro-3-2-chloro-5-fluoro-4-[2-(2-methoxy-ethoxy)-ethoxy]-benzyl-1H-pyrrolo[2,3-b]pyridine]
≤ 10 µM: c-Raf-1 | FGFR | Fms | Kdr
